Molecules are shown by their SMILES.

The values below come from patent publication US8592466B2, “Methods for treating conditions caused by higher-than-normal dopaminergic activity in basal ganglia” (Neuropill, Inc., priority 2008, dated 2013).

The test system of one series is serum prolactin. Description: Serum prolactin radioimmunoassay. The series is classed as in vivo, humans. On the procedure: Blood for prolactin level determinations were collected on day 0 at 6:00 A.M. before breakfast (7:00 A.M.) and also three times a day on days 15, 22 and 29 with first blood draw performed at 6:00 A.M. before the morning dose of RPR 102681 (6:05 A.M.) and the other two at 30 minutes after each i.v. infusion. Prolactin levels on days 15, 22, and 29 were compared between RPR 102681 and placebo cohorts to determine the extent to which prolactin levels are modified by the administration of RPR 102681 using repeated measures ANOVA. Changes in prolactin level induced by 40 mg cocaine infusion along with RPR 102681 (days 15, 22 and 29) were compared for each subject by RPR 102681 dose level using repeated measures ANOVA.
Prolactin concentrations were determined using a commercially available radioimmunoassay (Coat-A-Count® Prolactin IRMA, Diagnostic Products Corporation, Los Angeles, Calif.). Calibrator and QCs (CONE, lots #019 and 020) were also supplied by the manufacturer. Fifty microliters of calibrators, QCs and study samples were added to prolactin polyclonal antibody-coated tubes. This was followed by 200 μL of ^125I-labeled prolactin monoclonal antibodies, followed by shaking for 2 hours. The tubes were decanted and drained; 2 mLs of buffered wash solution was added for 1-2 minutes; the tubes were again decanted and drained; this was followed by a second wash step. After thorough draining, the radioactivity in the tubes was determined from 1 minute counts using a Packard Cobra II gamma counter (Downers Grove, Ill.). In theory, the ^125I-labeled prolactin monoclonal antibodies bind only to prolactin bound to the antibody coated onto the tubes. The radioactivity retained in the tube increases as does the amount of prolactin in the samples. The software for the gamma counter generates a standard curve based on the log of the concentration and the log of the B/Bo for the calibrators. This curve is used to back-calculate the concentration of prolactin in the samples. […]

A further series deals with T1, CCK-B receptor (Homo sapiens, UniProt P32239).
T1 sequence (P32239 1-447): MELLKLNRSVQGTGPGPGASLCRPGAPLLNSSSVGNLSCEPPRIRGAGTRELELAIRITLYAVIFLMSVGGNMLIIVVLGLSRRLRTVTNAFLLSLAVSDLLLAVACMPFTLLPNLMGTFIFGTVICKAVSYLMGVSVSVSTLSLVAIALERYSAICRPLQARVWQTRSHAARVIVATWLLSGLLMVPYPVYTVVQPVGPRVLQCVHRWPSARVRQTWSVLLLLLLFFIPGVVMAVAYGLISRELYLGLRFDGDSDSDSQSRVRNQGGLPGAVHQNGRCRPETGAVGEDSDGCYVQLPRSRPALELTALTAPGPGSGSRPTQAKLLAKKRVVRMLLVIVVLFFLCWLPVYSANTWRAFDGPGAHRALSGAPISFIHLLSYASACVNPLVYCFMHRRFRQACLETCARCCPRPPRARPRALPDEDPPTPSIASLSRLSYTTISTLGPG
Description: CCK-B receptor antagonism (statement).

The next series relates to DA release in striatum. Put plainly: [11C]-raclopride PET binding potential. In kind it is in vivo, humans. On the procedure: The Positron Emission Tomography (PET) scans were performed at the PET Center of Johns Hopkins University at Johns Hopkins Hospital, Baltimore, Md. During the PET scans three plasma samples of RPR 102681 were obtained from each subject under different dosing to measure RPR 102681 plasma concentration.
Each subject was also studied using Magnetic Resonance Imaging (MRI). Each subject received an individual thermoplastic mask molded to their face to allow for repositioning and stabilizing of the head during the MRI procedure and PET scan later. Marks, which localized the anatomical structures of interest, were placed on the mask following the MRI scan. In particular, each subject received an MRI with a sagittal scout view to localize the anterior commissure-posterior commissure (AC-PC) line to allow standardized positioning across the subjects based on the anatomical landmarks. […]
[^11C]-raclopride PET scans were preformed on days 6, 13, 20 and 27. […] To measure the specific binding of tracer, binding potential (BP) images were generated by a simplified reference model with a linear regression algorithm (Using a reference tissue model with spatial constraint to quantify [^11C] Pittsburgh compound B PET for early diagnosis of Alzheimer's disease, Yun Zhou, Susan M. Resnick, Weiguo Ye, Hong Fan, Daniel P. Holt, William E. Klunk, Chester A. Mathis, Robert Dannals, and Dean F. Wonga, NeuroImage 36 (2007) 298-312). […]
Subjects received PET scans with [^11C]-raclopride at baseline after uneventful completion of screening cocaine infusions and assignment to RPR 102681 or placebo treatment and on the fifth day of each RPR 102681 dose level (days 13, 20 and 27). After six subjects had completed all four PET scans these subjects' PET scan data was analyzed without breaking the blind to determine whether or not the PET scans should have been administered to any additional subjects. […]

With `CC(C(=O)O)c1cccc(NC(=O)NCC(=O)N2C(C(=O)OC(C)(C)C)CSC2c2ccccc2F)c1` [RPR 102681, (2S)-2-{3-[3-({[(2R,4R)-4-tert-Butoxycarbonyl-2-(2-fluorophenyl)]-3-thiazolidinyl}carbonylmethyl)ureido]phenyl}propionic acid], the “post-cocaine prolactin value vs post-saline value” in the series with serum prolactin (RPR 102681 group, day 29) is “significantly lower”. Also, in the series with serum prolactin (day 0 and pre-infusion days 15, 22, 29), the “serum prolactin levels, RPR 102681 vs placebo subjects” value is “no significant differences”. The “serum prolactin response to cocaine or saline infusion, RPR 102681 vs placebo” value with serum prolactin (infusion days 15, 22, 29) is listed as “no significant difference”. At CCK-B receptor, the CCK-B receptor antagonism result was “potent CCK-B receptor antagonist”. For the same compound, the “change in [11C]-raclopride binding potential (BP)” value was “no statistically significant change” with DA release in striatum (Dosing Schedule A, caudate nucleus, putamen or ventral striatum); “significantly increased BP” with DA release in striatum (Dosing Schedule B, dose 60-90 minutes prior to PET scan, caudate nucleus and ventral striatum, P<0.001). Besides, in the series with DA release in striatum (humans, PET brain imaging), the “dopamine release inferred from raclopride binding potential” value is given as “inhibited dopamine release”.
